Measured values taken from patent publication US20230116703A1, “NOVEL ERGOLINES AND METHODS OF TREATING MOOD DISORDERS” (priority 2021, published 2023).
Read-outs that look alike come from different tables or passages of the source.

Columns and labels:
Alpha1A receptor = biological target: T1, Alpha1A receptor (Homo sapiens, UniProt P35348); assay: FLIPR Ca^2+ flux agonist assay at Alpha1A; format: cell-based
T1 sequence (P35348 1-466): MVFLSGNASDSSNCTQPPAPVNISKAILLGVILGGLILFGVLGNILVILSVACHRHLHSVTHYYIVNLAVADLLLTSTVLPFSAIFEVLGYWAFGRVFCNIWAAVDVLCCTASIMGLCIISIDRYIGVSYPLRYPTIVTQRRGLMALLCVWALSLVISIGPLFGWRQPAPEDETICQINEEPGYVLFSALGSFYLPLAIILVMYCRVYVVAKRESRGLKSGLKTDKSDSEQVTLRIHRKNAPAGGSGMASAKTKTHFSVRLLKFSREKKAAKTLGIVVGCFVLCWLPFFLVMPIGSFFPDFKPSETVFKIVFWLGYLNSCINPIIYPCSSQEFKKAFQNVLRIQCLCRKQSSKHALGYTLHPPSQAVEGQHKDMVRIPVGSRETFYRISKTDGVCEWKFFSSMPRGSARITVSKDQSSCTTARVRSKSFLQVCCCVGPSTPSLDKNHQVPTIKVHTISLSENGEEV
Description: Disclosed compounds were tested for agonist activity at several adrenergic (Alpha1A and Alpha2A) and dopamine (D1 and D2) receptor subtypes using Ca^2+ flux functional assays, with the results summarized in Table 6. Selectivity for the 5-HT2A receptor over these other targets varied depending on the specific target and compound.
Functional Assays at Adrenergic and Dopamine Receptors. Agonist activity at Alpha1A, Alpha2A, D1, and D2 receptors was determined using a FLIPR Ca^2+ flux assay at WuXi AppTec (Hong Kong) Limited according to their standard protocols. Briefly, stably transfected cells expressing the receptor of interest were grown and plated in a 384 well plate and incubated at 37° C. and 5% CO2 overnight. A solution of 250 mM probenecid in 1 mL FLIPR assay buffer was prepared fresh. This was combined with a fluorescent dye (Fluo-4 Direct™) to make a final assay concentration of 2.5 mM. Compounds were diluted 1:3.16 for 10 points and 750 nL was added to a 384 well compound plate using ECHO along with 30 μL assay buffer. The fluorescent dye was then added to the assay plate along with assay buffer to a final volume of 40 μL. The cell plate was incubated for 50 min at 37° C. and 5% CO2 and placed into the FLIPR Tetra along with the compound plate. 10 μL of references and compounds were then transferred from the compound plate into the cell plate and the fluorescent signal was read.

Sprague Dawley rats = assay: Forced swim test (FST) in rats; format: in vivo, rat; conditions: for efficacy in FST compared to positive control desipramine (in words): 0.032 mg/kg, SC
Description: Compound 1 induced antidepressant-like effects in the forced swim test (FST) in rats with a 23.5-h pre-treatment time (FIG. 2).
Animals. Male Sprague Dawley rats, aged 9-10 weeks, were used in this experiment. Animals were housed in groups of 2 under controlled temperature (22±3° C.) and relative humidity (30-70%) conditions, with 12-hour light/dark cycles, and with ad libitum food and water. This study was carried out in strict accordance with the requirements of the Committee for the Purpose of Control and Supervision of Experiments on Animals (CPCSEA), India. All efforts were made to minimize suffering.
Drugs and Drug Administration. Compound 1 was synthesized as described above. Desipramine HCl was commercially obtained. The test compound, saline vehicle, and the positive control desipramine were administered subcutaneously (SC), with doses calculated based on the freebase. Normal saline was used as the vehicle. All compounds were administered at a volume of 5 mL/kg. The test compound and vehicle were administered 0.5 h after the start of the training swim (Swim 1) and 23.5 h before the test swim (Swim 2). Desipramine was administered 3 times, at 23.5 h, 5 h, and 1 h before the test swim (Swim 2), each time at a dose of 20 mg/kg. Group size was n=10 per treatment.
Forced Swim Test (FST). […] Rats were handled for about 2 min daily for the 5 days prior to the beginning of the experimental procedure. On the first day of the experiment (i.e., Day 0), post randomization, training swim sessions (Swim 1) were conducted between 12:00 and 18:00 h with all animals by placing rats in individual glass cylinders (46 cm tall×20 cm in diameter) containing 23-25° C. water 30 cm deep for 15 minutes. At the conclusion of Swim 1, animals were dried with paper towels, placed in heated drying cages for 15 minutes, and then returned to their home cages. […]
Behavioral scoring was conducted by observers who were blind to the treatment groups. Animals were continuously observed during Swim 2 and the total time spent engaging in the following behaviors was recorded: immobile, swimming, and climbing. […]

5-HT2B receptor = biological target: T2, 5-HT2B receptor (Homo sapiens, UniProt P41595); assay: 5-HT2B receptor radioligand binding with [^3H]LSD
T2 construct: host or cells: HEK293

[1] = Ca^2+ flux, agonist, read-out: Alpha1A EC50

T2 sequence (P41595 whole entry): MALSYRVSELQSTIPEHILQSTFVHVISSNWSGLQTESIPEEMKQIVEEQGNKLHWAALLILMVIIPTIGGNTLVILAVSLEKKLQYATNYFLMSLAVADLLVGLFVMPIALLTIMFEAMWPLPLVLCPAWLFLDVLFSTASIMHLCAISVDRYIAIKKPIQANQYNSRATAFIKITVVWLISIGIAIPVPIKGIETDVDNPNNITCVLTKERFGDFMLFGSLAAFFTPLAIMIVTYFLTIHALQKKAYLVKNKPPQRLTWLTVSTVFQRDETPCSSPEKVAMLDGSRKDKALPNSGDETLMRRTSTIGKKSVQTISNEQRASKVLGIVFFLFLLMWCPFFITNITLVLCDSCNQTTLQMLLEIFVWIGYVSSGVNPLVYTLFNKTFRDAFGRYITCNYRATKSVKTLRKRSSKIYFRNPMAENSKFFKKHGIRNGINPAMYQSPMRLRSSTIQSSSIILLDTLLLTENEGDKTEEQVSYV

| SMILES | EC50 (Alpha1A receptor) | immobility time relative to vehicle (in words) (Sprague Dawley rats; rat FST, 23.5 h after a single SC administration) | Ki (5-HT2B receptor) | efficacy in FST compared to positive control desipramine (in words) (Sprague Dawley rats) | EC50 (Alpha1A receptor; [1]) |
| --- | --- | --- | --- | --- | --- |
| CCCN1C[C@H](C(=O)N(CC)CC)C=C2c3cccc4[nH]cc(c34)C[C@H]21 [Compound 1, (6aR,9R)—N,N-diethyl-7-propyl-4,6,6a,7,8,9-hexahydroindolo[4,3-fg]quinoline-9-carboxamide] | 8.82 nM | reduced immobility time |  |  |  |
| CCN(CC)C(=O)[C@@H]1C=C2c3cccc4[nH]cc(c34)C[C@H]2N(CCCF)C1 [Compound 2, (6aR,9R)—N,N-diethyl-7-(3-fluoropropyl)-4,6,6a,7,8,9-hexahydroindolo[4,3-fg]quinoline-9-carboxamide] | 237 nM |  | 4.1 nM | as efficacious as the positive control desipramine |  |
| CCCN1C[C@H](C(=O)N[C@H](C)CC)C=C2c3cccc4[nH]cc(c34)C[C@H]21 [Compound 3, (6aR,9R)—N—((R)-sec-butyl)-7-propyl-4,6,6a,7,8,9-hexahydroindolo[4,3-fg]quinoline-9-carboxamide] | 42.3 nM |  | 4.09 nM |  |  |
| CCCN1C[C@H](C(=O)N2[C@@H](C)C[C@@H]2C)C=C2c3cccc4[nH]cc(c34)C[C@H]21 [Compound 4, ((2S,4S)-2,4-dimethylazetidin-1-yl)((6aR,9R)-7-propyl-4,6,6a,7,8,9-hexahydroindolo[4,3-fg]quinolin-9-yl)methanone] | 116 nM |  | 17.7 nM | as efficacious as the positive control desipramine |  |
| CCCN1C[C@H](C(=O)NC(CC)CC)C=C2c3cccc4[nH]cc(c34)C[C@H]21 [Compound 6, (6aR,9R)—N-(pentan-3-yl)-7-propyl-4,6,6a,7,8,9-hexahydroindolo[4,3-fg]quinoline-9-carboxamide] |  |  | 3.33 nM |  |  |
| CCN(CC)C(=O)[C@@H]1C=C2c3cccc4[nH]cc(c34)C[C@H]2N(Cc2ccccc2OC)C1 [Compound 10, (6aR,9R)—N,N-diethyl-7-(2-methoxybenzyl)-4,6,6a,7,8,9-hexahydroindolo[4,3-fg]quinoline-9-carboxamide] |  |  |  |  | > 31600 nM |
| CCN(CC)C(=O)[C@@H]1C=C2c3cccc4[nH]cc(c34)C[C@H]2N(CCc2ccccc2OC)C1 [Compound 11, (6aR,9R)—N,N-diethyl-7-(2-methoxyphenethyl)-4,6,6a,7,8,9-hexahydroindolo[4,3-fg]quinoline-9-carboxamide] |  |  |  |  | > 31600 nM |
